Results reported in US20250032460A1, “METHODS OF TREATING NEUROLOGICAL DISORDERS” (MapLight Therapeutics, Inc., priority 2021, published 2025).

Columns and labels:
[1] = system: MPTP-Induced Dyskinesia; assay: L-dopa-induced dyskinesia in MPTP-lesioned macaques; assay type: in vivo, cynomolgus macaques
Excerpt: It is now used in non-human primates to model primary parkinsonian motor symptom phenotypes and subsequent response to therapies such as L-dopa including dyskinesia-thus it can be used as foundational model for LID. See Huat 2012. (Huot P, Johnston T H, Koprich J B, Fox S H, Brotchie J M. L-DOPA pharmacokinetics in the MPTP-lesioned macaque model of Parkinson's disease. Neuropharmacology. 2012 October; 63(5):829-36.) Having both face validity and construct validity, the MPTP non-human primate model is considered the animal model of PD motor symptoms with the highest translational relevance.
A study was conducted in seven female MPTP-lesioned cynomolgus macaques that received chronic repeat treatment with L-dopa and in response manifested stable and reproducible dyskinesia that was choreic and dystonic in nature. Macaque behaviors were assessed following a single 1 mg/kg dose of Compound 1 or vehicle in combination with high-dose of L-dopa delivered as Madopar™ with a dose titrated for LID symptoms in each test animal. The ‘on time’ therapeutic effects and abnormal LID movements were assessed for 6 hours following administration of L-dopa. A single Compound 1 oral dose of 1 mg/kg or vehicle was administered at the same time as L-dopa at the start of behavioral observations. All animals received all treatments in a cross-over design with a minimum of 72 hours between repeat treatments in each animal. The therapeutic and LID behaviors were scored by trained raters supervised by a neurologist in a blinded fashion using high-definition video recordings and the non-human primate dyskinesia rating scale. See Fox 2012. (Fox S H, Johnston T H, Li Q, Brotchie J, Bezard E. A critique of available scales and presentation of the Non-Human Primate Dyskinesia Rating Scale. Mov Disord. 2012 Sep. 15; 27(11):1373-8.)

[2] = system: salivation; assay: Single ascending dose study: salivation (pharmacodynamics); assay type: in vivo, healthy adult volunteers; details: Group 1, 1-40 mg Compound 1 (FIG. 1)
Experimental: MTD was established at the dose which produced mild to moderate cholinergic adverse effects. Cholinergic effects were monitored for each dose, including pupillometry and salivation.
Group 2 evaluated tolerability of Compound 1 at Group 1 MTD with or without fesoterodine fumarate co-administration. Subjects received 8 mg of fesoterodine fumarate tablet or matched placebo tablet 4 hours prior to administration of 40 mg of Compound 1.

[3] = Compound 1 1 mg/kg PO with high-dose L-dopa, vs vehicle

**Q.** For `Cc1noc([C@@]23CNC[C@@H]2C3)n1` [Compound 1, 1-(3-methyl-[1,2,4]oxadiazol-5-yl)-(1R,5R)-3-aza-bicyclo[3.1.0]hexane], which “anti-parkinsonian benefit of L-DOPA and overall duration of on-time” value ([1]; Compound 1 1 mg/kg PO with high-dose L-dopa) is on record?
**A.** The value was “no reduction”.

**Q.** What about the “decrease in the duration of ‘bad’ on-time (on-time associated with disabling dyskinesia)” value [1, 3] of the same compound?
**A.** Its value is 41%.

**Q.** And the “increase in the duration of ‘good’ on-time (lack of, or only non-disabling dyskinesia)” value [1, 3]?
**A.** Its value is 143%.

**Q.** And the “reduction of median levels of dyskinesia during the 0-1 h period” value ([1]; Compound 1 1 mg/kg PO with high-dose L-dopa, vs vehicle, P<0.001)?
**A.** The value was 91%.

**Q.** What about the “reduction of median levels of dyskinesia cumulated over the 0-2 h period” value ([1]; Compound 1 1 mg/kg PO with high-dose L-dopa, vs vehicle, P=0.0156) of the same compound?
**A.** The value was 42%.

**Q.** What about the “median levels of dyskinesia during the 0-1 h period” value ([1]; Compound 1 1 mg/kg PO with high-dose L-dopa, vehicle 11) of the same compound?
**A.** The value was 1.

**Q.** What about the “median levels of dyskinesia cumulated over the 0-2 h period” value ([1]; Compound 1 1 mg/kg PO with high-dose L-dopa, vehicle 33) of the same compound?
**A.** Its value is 19.

**Q.** And the “animals with a robust reduction in LID” value ([1]; Compound 1 1 mg/kg PO, seven animals in final analyses)?
**A.** The value was “six of the seven animals”.

**Q.** What about the “change in salivation with dose” value [2] of the same compound?
**A.** Its value is “increase in salivation was observed with increasing dose”.
